We go through one molecule from patent US7612201B2, “Pyrazole compounds” (Vernalis (Cambridge) Limited, priority 2002, dated 2009).

A value given as a limit tells only on which side of the number the result lay.

Test [1] deals with T1, yeast HSP90 (Saccharomyces cerevisiae, UniProt P02829).
T1 construct: made in house; host or cells: E. coli
Briefly: Malachite green ATPase assay. It counts as biochemical. The conditions noted are these: activity range. The text has this: The intrinsic ATPase activity of HSP90 may be measured using yeast HSP90 as a model system. The assay, based on the use of malachite green for the measurement of inorganic phosphate, was used to test the HSP90 inhibitory activity of the compounds of the Examples herein.
Malachite Green ATPase Assay
Chemicals are of the highest purity commercially available and all aqueous solutions are made up in AR water. Because of the need to minimise contamination with inorganic phosphate, precautions should be taken with solutions and apparatus used in the assays. Glassware and pH meters are rinsed with double distilled or deionised water before use and, wherever possible, plastic ware should be used. Gloves are worn for all procedures. • (1) Greiner 384-well (Greiner 781101) or Costar 384-well flat-bottomed polystyrene multiwell plates (VWR). • (2) Assay buffer of (a) 100 mM Tris-HCl, pH 7.4, (b) 150 mM KCl, (c) 6 mM MgCl2. Stored at room temperature. • (3) 0.0812% (w/v) malachite green (M 9636, Sigma Aldrich Ltd., Poole, UK). Stored at room temperature. • (4) 2.32% (w/v) polyvinyl alcohol USP (P 1097, Sigma Aldrich Ltd, Poole, UK) in boiling water (see Comment 1), allowed to cool, and stored at room temperature. • (5) 5.72% (w/v) ammonium molybdate in 6 M hydrochloric acid. Stored at room temperature. • (6) 34% (w/v) sodium citrate. Stored at room temperature. • (7) 100 mM ATP, disodium salt, special quality (47699, Sigma Aldrich). Stored at −20° C. • (8) E. coli expressed yeast HSP90 protein, purified >95% (see, e.g., Panaretou et al., 1998) and stored in 50 uL aliquots at −80° C.
Method • 1. Dilute test compounds to 500 μM in AR water (DMSO concentration will be 2.5%). Transfer 2.5 μl of these compounds directly from the daughter plate to the assay plate, giving a final assay concentration of 100 μM. To obtain 12 point IC50 values, perform serial dilutions 1:2 to produce a range of assay concentrations from 100 μM to 97.6 nM (2.5% DMSO), and transfer 2.5 μl of each concentration into the assay plate. Column 1 in the assay plate contains no compound, as a negative control. An additional row with no compound is also used as a background. • 2. Prepare ATP by diluting 100 mM stock to 925 μM with assay buffer, and aliquot 5 μl of diluted ATP to each well including controls (final assay concentration 370 μM). • 3. Add 5 μl of buffer to background row. • 4. Dilute enzyme preparation to 1.05 μM with assay buffer, and aliquot 5 μl into each compound well and to the negative control column. • 5. Collect the reagents to the bottom of the well, cover plate with plate seal and incubate overnight at 37 degC. • 6. First thing in the morning prepare the Malachite Green Reagent. Add 2 parts of Malachite Green Solution, 1 part of Polyvinyl Alcohol Solution, 1 part of Ammonium Molybdate Solution, and 2 parts of AR water. • 7. Invert to mix, and leave for approximately 1 hour until the colour turns from brown to golden yellow. • 8. Add 40 μl of Malachite Green Reagent to each well, allow 5 mins for colour to develop. • 9. Add 5 μl of Sodium Citrate Reagent to each well (see comment 2) • 10. Re-cover with plate seal and shake on plate shaker for at least 15 mins. • 11. Measure Absorbance at 620 nm using a suitable plate reader (e.g. Victor, Perkin Elmer Life Sciences, Milton Keynes, UK).
Comments • (1) The polyvinyl alcohol dissolves in boiling water with difficulty and stirring for 2-3 h is required. • (2) The time interval between addition of the malachite green reagent and the sodium citrate should be kept as short as possible in order to reduce the non-enzymatic hydrolysis of ATP. Once the sodium citrate is added, the colour is stable for up to 4 h at room temperature. • (3) Compounds can be added to the assay plates using a Biomek FX Robot (Beckman Coulter).

Test [2] in a line: Sulforhodamine B (SRB) growth inhibition assay. It counts as cell-based. The conditions noted are these: SRB growth arrest assay. As for the experimental part:
A growth inhibition assay was also employed for the evaluation of candidate HSP90 inhibitors:
Day 1 • 1) Determine cell number by haemocytometer. • 2) Using an 8 channel multipipettor, add 160 μl of the cell suspension (3600 cells/well or 2×10^4 cells/ml) to each well of a 96-well microtitre plate. • 3) Incubate overnight at 37° C. in a CO2 incubator.
Day 2 • 4) Stock solutions of drugs are prepared, and serial dilutions of each drug are performed in medium to give final concentrations in wells. • 5) Using a multipipettor, 40 μl of drug (at 5× final concentration) is added to quadruplicate wells. • 6) Control wells are at either side of the 96 well plates, where 40 μl of medium is added. • 7) Incubate plates in CO2 incubator for 4 days (48 hours).
Day 6 • 8) Tip off medium into sink and immerse plate slowly into 10% ice cold trichloroacetic acid (TCA). […] Leave for 15 mins. • 12) Wash off unbound SRB stain with four washes of 1% acetic acid. • 13) Dry plates in incubator. • 14) Solubilise SRB using 100 μl of 10 mM Tris base and put plates on plate shaker for 5 mins. • 15) Determine absorbance at 540 nm using a plate reader. Calculate mean absorbance for quadruplicate wells and express as a percentage of value for control, untreated wells. • 16) Plot % absorbance values versus log drug concentration and determine the IC50.

T1 sequence (P02829 whole entry): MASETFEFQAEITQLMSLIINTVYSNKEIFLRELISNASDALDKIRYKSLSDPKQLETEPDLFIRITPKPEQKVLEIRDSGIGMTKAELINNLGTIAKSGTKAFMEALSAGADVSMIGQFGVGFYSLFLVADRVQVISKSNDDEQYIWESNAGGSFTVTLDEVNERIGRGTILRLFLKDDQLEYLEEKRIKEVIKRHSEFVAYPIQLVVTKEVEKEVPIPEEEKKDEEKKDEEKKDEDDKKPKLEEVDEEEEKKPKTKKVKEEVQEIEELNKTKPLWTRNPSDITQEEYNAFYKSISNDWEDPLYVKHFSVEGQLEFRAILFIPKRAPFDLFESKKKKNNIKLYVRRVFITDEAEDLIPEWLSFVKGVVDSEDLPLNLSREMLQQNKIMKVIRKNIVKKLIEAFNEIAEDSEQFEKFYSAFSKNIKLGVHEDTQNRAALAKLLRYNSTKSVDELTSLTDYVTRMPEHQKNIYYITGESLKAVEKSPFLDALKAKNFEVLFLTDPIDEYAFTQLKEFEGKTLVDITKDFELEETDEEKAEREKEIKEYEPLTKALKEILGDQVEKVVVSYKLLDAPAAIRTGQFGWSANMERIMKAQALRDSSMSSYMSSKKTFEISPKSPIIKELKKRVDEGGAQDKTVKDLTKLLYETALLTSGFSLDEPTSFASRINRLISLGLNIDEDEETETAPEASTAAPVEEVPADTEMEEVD

`Oc1cc(O)c(-c2n[nH]cc2N2CCNCC2)cc1Cl` [Example 2, 4-Chloro-6-(4-piperazin-1-yl-1H-pyrazol-3-yl)-benzene-1,3-diol]: the IC50 in test [1] and in test [2] was < 50 µM in each case.

Usually IC50 stands for the concentration that gives 50% inhibition. The low end stands for higher potency, the high end for lower potency.
